From US4968826A, “Platinum complexes and antitumor agents containing them as an active ingredient” (Shionogi & Co., Ltd., priority 1989, dated 1990)

Key:
[1] = system: L1210; test: Antitumor effect (ILS) in mice inoculated i.p. with murine leukemia L1210; assay type: in vivo, murine leukemia cells in BDF1 mice; conditions: for ILS30 (dose of achieving 30% ILS) / ILS max (dose of achieving the maximum ILS): i.p.; for Number of mice survived 30 days or longer: of 7 mice; for chemotherapy index (CI): from ILS30 and ILSmax, the greater, the more effective
Excerpt: (§1) Antitumor activities against murine leukemia cells (L1210) and cisplatin-resistant murine leukemia cells (L1210/CDDP):
(§2) Murine leukemia L1210 (or L1210/CDDP) ascitic cells (1×10^5 cells) (5×10^5 cells for L1210/CDDP) were intraperitoneally inoculated to BDF1 mice (each group consisting 6~10 mice), and on the next day a predetermined amount of the test compound was intraperitoneally administered. 0.9% physiological saline was used as a solvent for injection.
(§3) From the average survival days (a) in each test group and those (b) of the non-treated control group, the increase of lifespan (ILS) was calculated according to the following formula. [formula]
(§4) As compared with the non-treated control group, the dose of achieving 30% ILS (ILS30) and the dose of achieving the maximum ILS (ILSmax) were obtained, from which the chemotherapy index (CI) was calculated. [formula]

[2] = system: L1210/CDDP; test: Antitumor effect (ILS) in mice inoculated i.p. with cisplatin-resistant murine leukemia L1210/CDDP; assay type: in vivo, murine leukemia cells in BDF1 mice; conditions: for ILS30 (dose of achieving 30% ILS) / ILSmax (dose of achieving the maximum ILS): i.p.; for Number of mice surviving 30 days or longer: A: of 6 mice; for chemotherapy index (CI): from ILS30 and ILSmax, the greater, the more effective
Excerpt: as §1, §2, §3, §4

[3] = system: Colon tumor 38; test: Antitumor activity against Colon tumor 38 transplanted in mice; assay type: in vivo, BDF1 mice; conditions: for ED 50 (dose of 50% growth inhibition in the mean tumor size): i.v. on next day and 8th day after; for chemotherapy index (CI): from ED50 and LD50, the greater, the more effective
Excerpt: Antitumor activity against Colon tumor 38:
A tumor segment of Colon tumor 38 was transplanted beneath the dorsal skin of BDF1 mice (6 to 10 mice in each group), and the test compounds were intravenously administered on the next day and on the 8th day after the next day, respectively. As solvent for injection, 0.9% physiological saline was used.
Test Compounds A, C, D and E were same as those used in Experiment 1.

[4] = system: platelets in peripheral blood; test: Hemotoxicity: platelet count (PLT) in peripheral blood; assay type: in vivo, male CDF1 mice; conditions: 7 days after
Excerpt: (§5) Influence against murine nucleated bone marrow cell count, megakaryocyte count and platelet count in peripheral blood:
(§6) After a single intravenous administration of test compounds to male CDF1 mice (7 weeks old), hemotoxicity was investigated by counting the nucleated bone marrow cell in femora (NBMC), megakaryocyte (MEG) and platelet (PLT) in peripheral blood. Measuring timing was taken when the three indices reached the minimal value, namely 4 days after administration for NBMC, and 7 days after for MEG and PLT.
(§7) Changes in the counts of nucleated bone marrow cells (NBMC), megakaryocytes (MEG) and platelets (PLT) in peripheral blood induced by administration of the test compounds are shown as hemotoxicity, expressed as the ratio of the value of each index in the test group to that of the non-treated conrol group as a percentage.

[5] = system: megakaryocytes; test: Hemotoxicity: megakaryocyte count (MEG); assay type: in vivo, male CDF1 mice; conditions: 7 days after
Excerpt: as §5, §6, §7

[6] = system: murine nucleated bone marrow cells; test: Hemotoxicity: nucleated bone marrow cell count (NBMC) in femora; assay type: in vivo, male CDF1 mice; conditions: 4 days after
Excerpt: as §5, §6, §7

[7] = system: kidneys; test: Evaluation of nephrotoxicity in mice; assay type: in vivo, male CDF1 mice; conditions: for Creatinine / Urea nitrogen: mouse, in vivo, iv
Description: Evaluation of nephrotoxicity in mice:
After a single intravenous administration of Test Compound A to male CDF1 mice (6 weeks old) at a rate of 160 or 320 mg/kg*, the levels of creatinine and urea nitrogen in plasma were measured. The mice were presented for pathological examination of kidneys four days after administration. (*: 320 mg/kg would be a lethal dose if the observation period was further extended.)

[8] = 30.0 mg/kg (1/6 LD90) single i.v.

Molecule	ILS30 (dose of achieving 30% ILS) [1]	ILS max (dose of achieving the maximum ILS) [1]	ILS30 (dose of achieving 30% ILS) [2]	ED 50 (dose of 50% growth inhibition in the mean tumor size) [3]	Solubility in water	increase of lifespan (ILS) ([1]; 10 mg/kg i.p.)	increase of lifespan (ILS) ([1]; 20 mg/kg i.p.)	increase of lifespan (ILS) ([1]; 40 mg/kg i.p.)	increase of lifespan (ILS) ([1]; 80 mg/kg i.p.)	increase of lifespan (ILS) ([1]; 160 mg/kg i.p.)	Number of mice survived 30 days or longer ([1]; 160 mg/kg i.p.)	chemotherapy index (CI) [1]	increase of lifespan (ILS) ([2]; 5 mg/kg i.p.)	increase of lifespan (ILS) ([2]; 10 mg/kg i.p.)	increase of lifespan (ILS) ([2]; 20 mg/kg i.p.)	increase of lifespan (ILS) ([2]; 40 mg/kg i.p.)	Number of mice surviving 30 days or longer ([2]; 40 mg/kg i.p., B: of 7 mice)	increase of lifespan (ILS) ([2]; 80 mg/kg i.p.)	Number of mice surviving 30 days or longer ([2]; 80 mg/kg i.p., B: of 7 mice)	increase of lifespan (ILS) ([2]; 160 mg/kg i.p.)	further results
N.N.[Cl][Pt][Cl] [Test Compound D, Cisplatin, reference compound]	2.7 mg/kg	10 mg/kg	ineffective	18.3 mg/kg	–	–	–	–	–	–	–	–	–	–	–	–	–	–	–	–	–
N.N.O=C([O-])C1(C(=O)[O-])CCC1.[Pt+2] [Test Compound E, Carboplatin]	–	–	ineffective	Ineffective	16 mg/mL	–	–	–	–	–	–	–	–	–	–	–	–	–	–	–	Hemotoxicity PLT (ratio to non-treated control) [4, 8]: 89 percentage; Hemotoxicity PLT (ratio to non-treated control) ([4]; 60.0 mg/kg single i.v.): 65 percentage; Hemotoxicity PLT (ratio to non-treated control) ([4]; 120.0 mg/kg single i.v.): 35 percentage; Hemotoxicity MEG (ratio to non-treated control) [5, 8]: 60 percentage; Hemotoxicity MEG (ratio to non-treated control) ([5]; 60.0 mg/kg single i.v.): 45 percentage; Hemotoxicity MEG (ratio to non-treated control) ([5]; 120.0 mg/kg single i.v.): 8 percentage; Hemotoxicity NBMC (ratio to non-treated control) [6, 8]: 78 percentage; Hemotoxicity NBMC (ratio to non-treated control) ([6]; 60.0 mg/kg single i.v.): 75 percentage; Hemotoxicity NBMC (ratio to non-treated control) ([6]; 120.0 mg/kg single i.v.): 28 percentage
(1R,2R-Diaminocyclohexane)[1-hydroxy-1-cyclopentanecarboxylato(2-)-O^1,O^2 ]platinum (II) [Test Compound A]	31 mg/kg	160 mg/kg	14.5 mg/kg	164.9 mg/kg	> 500 mg/mL	16%	19%	37%	> 81%	> 168%	1	5.2	1%	5%	> 50%	> 56%	2	> 110%	4	1%	Creatinine ([7]; 160 mg/kg): 0.26; Urea nitrogen ([7]; 160 mg/kg): 22.6 mg/dL; Creatinine ([7]; 320 mg/kg): 0.27; Urea nitrogen ([7]; 320 mg/kg): 23.3 mg/dL; lethal dose ([7]; single i.v., male CDF1 mice, if the observation period was further extended): 320 mg/kg; increase of lifespan (ILS) ([1]; 5 mg/kg i.p.): 10%; Number of mice survived 30 days or longer ([1]; 40 mg/kg i.p.): 1; Number of mice survived 30 days or longer ([1]; 80 mg/kg i.p.): 3; increase of lifespan (ILS) ([1]; 320 mg/kg i.p.): 14%; Hemotoxicity NBMC (ratio to non-treated control) ([6]; 31.0 mg/kg single i.v.): 108 percentage; Hemotoxicity NBMC (ratio to non-treated control) ([6]; 62.0 mg/kg (1/5 LD90) single i.v.): 87 percentage; Number of mice surviving 30 days or longer ([2]; 20 mg/kg i.p.): 2; chemotherapy index (CI) [2]: 5.5; ILSmax (dose of achieving the maximum ILS) [2]: 80 mg/kg; chemotherapy index (CI) [3]: 2.7
(1R,2R-Diaminocyclohexane)[1-hydroxy-1-cyclopropanecarboxylato(2-)-O^1,O^2 ]platinum (II) [Test Compound B]	45 mg/kg	160 mg/kg	24 mg/kg	–	30 mg/mL	10%	21%	22%	66%	> 83%	2	3.6	6%	14%	4%	> 93%	3	> 179%	6	-16%	chemotherapy index (CI) [2]: 3.3; ILSmax (dose of achieving the maximum ILS) [2]: 80 mg/kg
(1R,2R-Diaminocyclohexane)[2-hydroxy-2-methylbutyrato(2-)-O^1, O^2 -]platinum (II) [Test Compound C]	–	–	–	106.2 mg/kg	–	–	–	–	–	–	–	–	–	–	–	–	–	–	–	–	chemotherapy index (CI) [3]: 4.3
